Tests used:
HCV replicon GT1b cells = assay: Cytotoxicity in HCV replicon GT1b cells, Cell Titer Flo (Example 5); assay type: cell-based; details: 72 hours, IFN-α
[1] = system: HCV GT1b replicon cell line; assay type: cell-based; details: IFN-α
[2] = system: HCV GT1b replicon cell line; assay: Two-compound combination study in HCV GT1b replicon, MacSynergy II; assay type: cell-based
Description: The DMSO stocks of the compounds used in the single compound testing were also used in this analysis. Combination dilution matrixes were generated by POD-810 in 96-well assay microplates. The POD-810 system was used to generate 7-point, 2-fold serial dilutions in a matrix format.
The plates were incubated for 1 hour, and cell viability was measured on an Envision reader for cytotoxicity calculation. The liquid was then removed from the plates, after which 50 μL PBS and 50 μL firefly luciferase substrate solution were added to each well, after a 2-minute incubation period, chemiluminescence (for HCV replication calculation) was measured. The data were analyzed using MacSynergy™ II.

[3] = system: HCV GT1b replicon cell line; details: expected value, Table 10; IFN-α; cited from earlier work
[4] = system: Db/+ mice fed a high fructose diet; details: treated for 28 days; cited from earlier work
db/db mice = details: mouse, in vivo; cited from earlier work

IFN-α
GT1b CC50 (HCV replicon GT1b cells): >1000 IU/mL | GT1b EC50 in dose ranging assay ([1]; Table 13): 1.34 IU/mL | GT1b EC50 ([1]; single compound, 72 hours): 1.34 IU/mL | GT1b EC50 of single dose in drug combination ([2]; individual compound in the combination matrix, IFN-α): 3.43 IU/mL | GT1b Expected EC50 [3]: 1 IU/mL

CC12C[C@@]34C=CC(=O)[C@@](C)(CCC(=O)Nc5c(O)ccc(C(=O)O)c5O)C3[C@H](CC1C4)O2 (stereo partly drawn) [platensimycin]
Insulin sensitivity [4]: improved insulin sensitivity | Liver triglyceride levels [4]: reduced liver triglyceride levels | Ambient glucose levels (db/db mice): reduced

Cc1ccc(C(=O)N2CCC(F)(c3ccc(C#N)cc3)CC2)cc1NC(=O)NC1CCCOC1 (stereo not drawn) [(V-K)]
Combination antiviral effect (in words) ([2]; in combination with IFN-α, RBV, Compounds B, C, D, E): additive antiviral activity

— patent publication US10189822B2, “Heterocyclic modulators of lipid synthesis” (3-V Biosciences, Inc., priority 2015, dated 2019)
